pIC50: −log10 of the molar value. Values after ≈ are worked out from the molar mass of the structure shown.
How the values were obtained:
[1] = tested on: Trichophyton mentagrophytes; experiment: Antifungal activity against Trichophyton mentagrophytes IFO 40996 after 48 to 72 hrs at 28 degC by serial 2-fold dilution method; format: functional
A549 = experiment: Cytotoxicity against human A549 cells assessed as reduction in cell viability after 72 hrs by MTT assay; format: functional, cell-based; conditions: A549, 72 h
Proteus hauseri = experiment: Antibacterial activity against Proteus hauseri NBRC 3851 after 24 hrs at 37 degC by broth dilution method; format: functional; conditions: NBRC 3851, 24 h
Sortase A = molecular target: T1, Sortase A (Staphylococcus aureus, UniProt Q9S446); experiment: Inhibition of Staphylococcus aureus ATCC 6538p sortase A expressed in Escherichia coli using dabcyl-QALPETGEE-edans as substrate incubated for 1 hr by fluorescence spectrophotometry analysis
T1 sequence (Q9S446 whole entry): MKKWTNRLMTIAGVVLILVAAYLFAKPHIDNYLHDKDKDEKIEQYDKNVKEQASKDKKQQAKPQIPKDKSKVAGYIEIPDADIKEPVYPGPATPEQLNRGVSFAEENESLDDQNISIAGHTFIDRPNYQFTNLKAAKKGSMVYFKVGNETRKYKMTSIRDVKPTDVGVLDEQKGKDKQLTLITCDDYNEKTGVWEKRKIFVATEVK

Staphylococcus aureus = experiment: Antibacterial activity against Staphylococcus aureus ATCC 6538p after 24 hrs at 37 degC by broth dilution method; format: functional
Escherichia coli = experiment: Antibacterial activity against Escherichia coli ATCC 35270 after 24 hrs at 37 degC by broth dilution method; format: functional; conditions: ATCC 35270, 24 h
Bacillus subtilis = experiment: Antibacterial activity against Bacillus subtilis ATCC 6633 after 24 hrs at 37 degC by broth dilution method; format: functional; conditions: ATCC 6633, 24 h
[2] = molecular target: Sodium/potassium-transporting ATPase; experiment: Inhibition of Na+/K+ -ATPase in human intrauterine growth restriction placental membrane using 3-O-methylfluorescein phosphate by fluorometric method in presence of Kcl; format: tissue-based
Trichophyton rubrum = experiment: Antifungal activity against Trichophyton rubrum IFO 9185 after 48 to 72 hrs at 28 degC by serial 2-fold dilution method; format: functional
Aspergillus fumigatus = experiment: Antifungal activity against Aspergillus fumigatus HIC 6094 after 48 to 72 hrs at 28 degC by serial 2-fold dilution method; format: functional
[3] = Inhibition of Magnaporthe grisea Guy 11 isocitrate lyase using isocitrate as substrate by spectrophotometric based glyoxylate cycle assay; set-up: species or system Pyricularia grisea
Kocuria rhizophila = experiment: Antibacterial activity against Kocuria rhizophila NBRC 12708 after 24 hrs at 37 degC by broth dilution method; format: functional; conditions: NBRC 12708, 24 h
Candida albicans = experiment: Antifungal activity against Candida albicans ATCC 10231 after 48 to 72 hrs at 28 degC by serial 2-fold dilution method; format: functional
K562 = experiment: Cytotoxicity against human K562 cells assessed as reduction in cell viability after 72 hrs by MTT assay; format: functional, cell-based; conditions: K562, 72 h
Salmonella enterica = experiment: Antibacterial activity against Salmonella enterica ATCC 14028 after 24 hrs at 37 degC by broth dilution method; format: functional; conditions: ATCC 14028, 24 h

Structure (SMILES) | MIC [1] | pIC50 (A549) | MIC (Proteus hauseri) | pIC50 (Sortase A) | MIC (Staphylococcus aureus) | MIC (Escherichia coli) | MIC (Bacillus subtilis) | pIC50 [2] | MIC (Trichophyton rubrum) | MIC (Aspergillus fumigatus) | IC50 [3] | MIC (Kocuria rhizophila) | MIC (Candida albicans) | pIC50 (K562) | MIC (Salmonella enterica)
C=C1CCC[C@H]2[C@](C)(CC3=CC(=O)C=C(N(C)CCS(=O)(=O)O)C3=O)[C@@H](C)CC[C@@]12C | 128 µg/mL (≈ 285 µM) | 5.21 | 128 µg/mL (≈ 285 µM) | < 3.55 | 128 µg/mL (≈ 285 µM) | > 128 µg/mL | 64 µg/mL (≈ 142 µM) | 4.02 | > 128 µg/mL | > 128 µg/mL | 93.3 µg/mL (≈ 208 µM) | 64 µg/mL (≈ 142 µM) | 128 µg/mL (≈ 285 µM) | 5.24 | 128 µg/mL (≈ 285 µM)
C=C1CCC[C@@]23C4=C(C[C@]2(C)[C@@H](C)CC[C@@]13C)C(=O)C=C(NC)C4=O | 128 µg/mL (≈ 377 µM) | 5.31 | > 128 µg/mL | < 3.42 | > 128 µg/mL | > 128 µg/mL | > 128 µg/mL | < 3.42 | > 128 µg/mL | > 128 µg/mL |  | 2 µg/mL (≈ 5.89 µM) | > 128 µg/mL | 5.40 | > 128 µg/mL
C=C1CCC[C@H]2[C@](C)(CC3=CC(=O)C=C(NCCS(=O)(=O)O)C3=O)[C@@H](C)CC[C@@]12C | 128 µg/mL (≈ 294 µM) | 5.38 | 32 µg/mL (≈ 73.5 µM) | 3.57 | 64 µg/mL (≈ 147 µM) | > 128 µg/mL | 32 µg/mL (≈ 73.5 µM) | 4.09 | > 128 µg/mL | > 128 µg/mL | 43.5 µg/mL (≈ 99.9 µM) | 8 µg/mL (≈ 18.4 µM) | 16 µg/mL (≈ 36.7 µM) | 5.16 | 32 µg/mL (≈ 73.5 µM)
C=C1CCC[C@@]23Oc4ccc(O)cc4C[C@]2(C)[C@@H](C)CC[C@@]13C | 8 µg/mL (≈ 25.6 µM) | 5.23 | 2 µg/mL (≈ 6.4 µM) | < 3.39 | 2 µg/mL (≈ 6.4 µM) | > 128 µg/mL | 1 µg/mL (≈ 3.2 µM) | 4.16 | > 128 µg/mL | > 128 µg/mL |  | 1 µg/mL (≈ 3.2 µM) | > 128 µg/mL | 5.32 | 1 µg/mL (≈ 3.2 µM)
C=C1CCC[C@@]23C4=C(C[C@]2(C)[C@@H](C)CC[C@@]13C)C(=O)C=C(NCCS(=O)(=O)O)C4=O | > 128 µg/mL | 5.64 | > 128 µg/mL | < 3.53 | > 128 µg/mL | > 128 µg/mL | > 128 µg/mL | 3.55 | > 128 µg/mL | > 128 µg/mL |  | 128 µg/mL (≈ 295 µM) | > 128 µg/mL | 5.96 | > 128 µg/mL
C=C1CCC[C@@]23C4=C(C[C@]2(C)[C@@H](C)CC[C@@]13C)C(=O)C(OC)=CC4=O | > 128 µg/mL | 5.48 | 16 µg/mL (≈ 47 µM) |  | > 128 µg/mL | > 128 µg/mL | 16 µg/mL (≈ 47 µM) | < 3.42 | > 128 µg/mL | > 128 µg/mL | > 128 µg/mL | 8 µg/mL (≈ 23.5 µM) | > 128 µg/mL | 6.15 | 16 µg/mL (≈ 47 µM)
O=C(O)CC[N+](=O)[O-] |  |  |  |  |  |  |  |  |  |  | 2.5 µg/mL (≈ 21 µM) |  |  |  | 
C[C@@H]1[C@H](O)[C@@H](C)/C=C/C=C/C=C/C=C/C=C/C=C/C=C/[C@H](O[C@@H]2O[C@H](C)[C@@H](O)[C@H](N)[C@@H]2O)C[C@@H]2O[C@](O)(C[C@@H](O)C[C@@H](O)[C@H](O)CC[C@@H](O)C[C@@H](O)CC(=O)O[C@H]1C)C[C@H](O)[C@H]2C(=O)O [AMPHOTERICIN B] | 4 µg/mL (≈ 4.33 µM) |  |  |  |  |  |  |  | 1 µg/mL (≈ 1.08 µM) | 8 µg/mL (≈ 8.66 µM) |  |  | 0.5 µg/mL (≈ 0.541 µM) |  | 
CC1(C)S[C@@H]2[C@H](NC(=O)[C@H](N)c3ccccc3)C(=O)N2[C@H]1C(=O)O [AMPICILLIN] |  |  | < 0.06 µg/mL |  | 0.13 µg/mL (≈ 0.372 µM) | 4 µg/mL (≈ 11.4 µM) | < 0.06 µg/mL |  |  |  |  | < 0.06 µg/mL |  |  | 0.06 µg/mL (≈ 0.172 µM)
C=C1CCC[C@H]2[C@](C)(Cc3cc(O)ccc3O)[C@@H](C)CC[C@@]12C [ARENAROL] | 8 µg/mL (≈ 25.4 µM) | 5.43 | 2 µg/mL (≈ 6.36 µM) | < 3.39 | 4 µg/mL (≈ 12.7 µM) | > 128 µg/mL | 4 µg/mL (≈ 12.7 µM) | 4.94 | 4 µg/mL (≈ 12.7 µM) | > 128 µg/mL |  | 4 µg/mL (≈ 12.7 µM) | 4 µg/mL (≈ 12.7 µM) | 5.47 | 4 µg/mL (≈ 12.7 µM)
COc1ccc2cc3[n+](cc2c1OC)CCc1cc2c(cc1-3)OCO2 [BERBERINE CHLORIDE] |  |  |  | 3.96 |  |  |  |  |  |  |  |  |  |  | 
